From patent US20100063102A1, “TREATMENT OF FAECAL INCONTINENCE” (UROGENE, priority 2007, published 2010)
“Also recorded” adds a separate entry of the source.

System: striated anal sphincter
Assay: Effect on the electromyographic activity of the rabbit striated anal sphincter under bladder irritation (SS-EMG)
Type: in vivo
Description: The effect of the HP749 compound was tested on rabbits under conditions of bladder irritation. Female rabbits of the New Zealand race weighing from 2.5 to 3.5 kg were used. The bladder irritation was caused by transcontinuous bladder infusion of 0.5% acetic acid. Under these conditions, the striated anal sphincter electromyography is increased. Throughout the experiment, the animal was placed in the supine position and anaesthetized with 2-3% of halothane. The striated sphincter electromyography (SS-EMG) was carried out using two electrodes (30-gauge needle) placed percutaneously in the striated anal sphincter, approximately 5-10 mm from the anus (laterally). The electric signals were amplified on an ML136 preamplifier (AD Instruments, PanLab, Barcelona, Spain), filtered below 1 Hz and above 5 KHz and presented in a PowerLab window. The striated sphincter electromyography (SS-EMG) was recorded continuously during the cystometry. Cumulative doses of the HP749 compound (0, 1, 3 and 5 mg/kg) were administered through an intravenous canula connected to the ear vein. The medicaments in saline solution were freshly prepared before each experiment and administered in a volume of 1 ml, followed by rinsing with 1 ml of physiological saline solution. The results were expressed by the mean±the standard error of the […]. The electromyographic values obtained under conditions of irritation after administration of a placebo were used as control values. The effects of the HP749 compound were analysed and compared with the control values by means of a Wilcoxon test. The results obtained were considered to be significant when p<0.05.

CCCN(c1ccncc1)n1ccc2ccccc21 [HP749, N-propyl-N-(4-pyridinyl)-1H-indol-1-amine]
mean increase in the EMG activity compared with the control value (anaesthetized female New Zealand rabbits, bladder irritation with 0.5% acetic acid, cumulative i.v. doses 1, 3 and 5 mg/kg, control = placebo, p<0.01): 155%
effect on the electromyographic (EMG) activity of the striated anal sphincter (at all the doses (1, 3 and 5 mg/kg i.v.), FIG. 1, Wilcoxon test vs placebo control): significant effect; also recorded: powerful effect
dose at which the effect on the external anal sphincter appeared to have reached its maximum (rabbits, i.v., lowest dose tested): 1 mg/kg
